# Values joined by “and” are separate entries in the source; they are usually repeats but may differ in a detail not shown here. Identical values can stand only once.
# What was measured:
# [1] = test system: dog primary hepatocytes; experiment: Hepatocyte stability, dog; type: in vitro ADME
# [2] = 7-day Maximum Tolerated Dose 1 (MTD1) rat study; type: in vivo, Wistar Han rats; set-up: AUC(0 - t) / Cmax / Urea / Glucose / Triglycerides: unit not given here; conditions: for Glucose / Triglycerides / Urea: Female
# From the text: See the summary of the study design in Supplementary Table 31. Nine-week-old Wistar (Crl:WI (Han)) rats were obtained from Charles River Laboratories (Domaine des Oncins, Saint-Germain-Nuelles, France). […] Animals were examined daily for any altered clinical signs, body weights, and food consumption. Blood samples were taken at different timepoints after the test item administration, and toxicokinetic exposure assessed under the defined experimental conditions and analyzed using Phoenix (version 6.4 and 1.4) (Supplementary Table 32). Measurements included hematology and clinical chemistry measurements. Animals were euthanized and necropsied at the end of the dosing period. At necropsy, major organ systems and tissues were collected and weighed and then examined for gross lesions as well as for microscopic changes.
structure (smiles),measurement,setting,value
C[C@@H](CNC(=O)[C@H](O)C(C)(C)CO)NC(=O)c1cc(F)c(F)cc1F [MMV693183],Compound Remaining (% of 0 min),[1]; 0 min,100%
same,Compound Remaining (% of 0 min),[1]; 5 min,92.3%
same,Compound Remaining (% of 0 min),[1]; 10 min,91.7%
same,Compound Remaining (% of 0 min),[1]; 20 min,92.7%
same,Compound Remaining (% of 0 min),[1]; 40 min,85.2%
same,Compound Remaining (% of 0 min),[1]; 60 min,83.9%
same,mortality,"[2]; 60, 200, 600 mg/kg/day, 7 days",no mortality occurred
same,Glucose,[2]; 60 mg/kg,6.25 and 5.62 and 5.48
same,Triglycerides,[2]; 60 mg/kg,0.3 and 0.46 and 0.39
same,Urea,[2]; 60 mg/kg,6.7 and 8 and 8.3
same,Glucose,[2]; 200 mg/kg,5.19 and 5.85 and 7.06
same,Triglycerides,[2]; 200 mg/kg,0.51 and 0.91 and 0.6
same,Urea,[2]; 200 mg/kg,7.8 and 8 and 8.4
same,Glucose,[2]; 600 mg/kg,6.4 and 7.42 and 7.56
same,Triglycerides,[2]; 600 mg/kg,0.6 and 0.51 and 0.37
same,Urea,[2]; 600 mg/kg,7.4 and 6.8 and 9.9
same,Liver weight,"[2]; MTD1 60 mg/kg/day, Females",4.77 g
same,AUC(0 - t),"[2]; MTD1 60 mg/kg/day, Females, Day 1 then Day 7",88.9
same,Liver weight,"[2]; MTD1 60 mg/kg/day, Males",7.73 g
same,Liver weight,"[2]; MTD1 200 mg/kg/day, Females",6.00 g
same,Liver weight,"[2]; MTD1 200 mg/kg/day, Males",8.66 g
same,Liver weight,"[2]; MTD1 600 mg/kg/day, Females",7.44 g
same,Liver weight,"[2]; MTD1 600 mg/kg/day, Males",11.22 g
same,Concentration,"[2]; MTD1 females, Day 1, 60 mg/kg/day, 0 h",LLOQ
same,Concentration,"[2]; MTD1 females, Day 1, 60 mg/kg/day, 1 h",33.6 µM and 28.3 µM
same,Concentration,"[2]; MTD1 females, Day 1, 60 mg/kg/day, 4 h",2.9 µM and 3.29 µM
same,Concentration,"[2]; MTD1 females, Day 1, 60 mg/kg/day, 8 h",1.05 µM and 0.628 µM
same,Concentration,"[2]; MTD1 females, Day 1, 60 mg/kg/day, 24 h",LLOQ
same,Concentration,"[2]; MTD1 females, Day 1, 200 mg/kg/day, 0 h",LLOQ
same,Concentration,"[2]; MTD1 females, Day 1, 200 mg/kg/day, 1 h",86.7 µM and 116 µM
same,Concentration,"[2]; MTD1 females, Day 1, 200 mg/kg/day, 4 h",21.3 µM and 11.6 µM
same,Concentration,"[2]; MTD1 females, Day 1, 200 mg/kg/day, 8 h",6.7 µM and 4.68 µM
same,Concentration,"[2]; MTD1 females, Day 1, 600 mg/kg/day, 0 h",LLOQ
same,Concentration,"[2]; MTD1 females, Day 1, 600 mg/kg/day, 1 h",311 µM
same,Concentration,"[2]; MTD1 females, Day 1, 600 mg/kg/day, 4 h",74.9 µM and 64.8 µM
same,Concentration,"[2]; MTD1 females, Day 1, 600 mg/kg/day, 8 h",49.5 µM and 25.8 µM
same,Concentration,"[2]; MTD1 females, Day 1, 600 mg/kg/day, 24 h",LLOQ
same,Concentration,"[2]; MTD1 females, Day 7, 60 mg/kg/day, 0 h",LLOQ
same,Concentration,"[2]; MTD1 females, Day 7, 60 mg/kg/day, 1 h",21.8 µM and 20.3 µM
same,Concentration,"[2]; MTD1 females, Day 7, 60 mg/kg/day, 4 h",2.9 µM and 3.02 µM
same,Concentration,"[2]; MTD1 females, Day 7, 60 mg/kg/day, 8 h",0.604 µM and 1.2 µM
same,Concentration,"[2]; MTD1 females, Day 7, 60 mg/kg/day, 24 h",LLOQ
same,Concentration,"[2]; MTD1 females, Day 7, 200 mg/kg/day, 0 h",LLOQ
same,Concentration,"[2]; MTD1 females, Day 7, 200 mg/kg/day, 1 h",10.4 µM and 9.61 µM
same,Concentration,"[2]; MTD1 females, Day 7, 200 mg/kg/day, 4 h",5.35 µM and 3.22 µM
same,Concentration,"[2]; MTD1 females, Day 7, 200 mg/kg/day, 8 h",0.804 µM and 0.957 µM
same,Concentration,"[2]; MTD1 females, Day 7, 200 mg/kg/day, 24 h",LLOQ
same,Concentration,"[2]; MTD1 females, Day 7, 600 mg/kg/day, 0 h",0.568 µM and 0.368 µM
same,Concentration,"[2]; MTD1 females, Day 7, 600 mg/kg/day, 1 h",15.1 µM and 29.6 µM
same,Concentration,"[2]; MTD1 females, Day 7, 600 mg/kg/day, 4 h",8.62 µM and 9.68 µM
same,Concentration,"[2]; MTD1 females, Day 7, 600 mg/kg/day, 8 h",6.83 µM and 6.42 µM
same,Concentration,"[2]; MTD1 males, Day 1, 60 mg/kg/day, 0 h",LLOQ
same,Concentration,"[2]; MTD1 males, Day 1, 60 mg/kg/day, 1 h",12 µM and 13.7 µM
same,Concentration,"[2]; MTD1 males, Day 1, 60 mg/kg/day, 4 h",1.09 µM and 1.97 µM
same,Concentration,"[2]; MTD1 males, Day 1, 60 mg/kg/day, 24 h",LLOQ
same,Concentration,"[2]; MTD1 males, Day 1, 200 mg/kg/day, 0 h",LLOQ
same,Concentration,"[2]; MTD1 males, Day 1, 200 mg/kg/day, 1 h",98.9 µM and 133 µM
same,Concentration,"[2]; MTD1 males, Day 1, 200 mg/kg/day, 4 h",14 µM and 18.5 µM
same,Concentration,"[2]; MTD1 males, Day 1, 200 mg/kg/day, 24 h",LLOQ
same,Concentration,"[2]; MTD1 males, Day 1, 600 mg/kg/day, 0 h",LLOQ
same,Concentration,"[2]; MTD1 males, Day 1, 600 mg/kg/day, 1 h",189 µM and 295 µM
same,Concentration,"[2]; MTD1 males, Day 1, 600 mg/kg/day, 4 h",69.9 µM and 98.6 µM
same,Concentration,"[2]; MTD1 males, Day 7, 60 mg/kg/day, 0 h",LLOQ
same,Concentration,"[2]; MTD1 males, Day 7, 60 mg/kg/day, 1 h",2.78 µM and 3.29 µM
same,Concentration,"[2]; MTD1 males, Day 7, 60 mg/kg/day, 8 h",LLOQ
same,Concentration,"[2]; MTD1 males, Day 7, 60 mg/kg/day, 24 h",LLOQ
same,Concentration,"[2]; MTD1 males, Day 7, 200 mg/kg/day, 0 h",LLOQ
same,Concentration,"[2]; MTD1 males, Day 7, 200 mg/kg/day, 1 h",15.5 µM and 8.65 µM
same,Concentration,"[2]; MTD1 males, Day 7, 200 mg/kg/day, 4 h",2.92 µM and 2.95 µM
same,Concentration,"[2]; MTD1 males, Day 7, 200 mg/kg/day, 8 h",1.04 µM and 0.952 µM
same,Concentration,"[2]; MTD1 males, Day 7, 200 mg/kg/day, 24 h",LLOQ
same,Concentration,"[2]; MTD1 males, Day 7, 600 mg/kg/day, 0 h",LLOQ
